According to patent US8754071B2 (priority 2011, dated 2014):

Target: T1, c-kit (Homo sapiens, UniProt P10721)
T1 construct: human Mo7e cells which endogenously express c-kit; endogenous in cells; host or cells: human Mo7e cells (promegakaryocytic leukemia line), stimulated with human recombinant SCF
Assay: Mo7e cell proliferation assay (SCF dependent proliferation)
Format: cell-based
Settings: Table 1; human Mo7e cells stimulated with SCF, 48 hours, CellTiter Glo; 1% FBS; read-out: c-kit (Mo7e)
Experimental: Mo7e Cell Proliferation Assay The compounds of Table 1 and Table 2 were tested for inhibition of SCF dependent proliferation using human Mo7e cells which endogenously express c-kit in a 384 well format. […] After 48 hours of incubation at 37° C., cell viability was measured by adding 25 uL of CellTiter Glo (Promega) to the cells and the luminescence was measured by a […] camera (Molecular Devices). […] The IC50 value is given as that concentration of the test compound in question that provoke a response halfway between the baseline and maximum responses.

T1 sequence (P10721 26-976): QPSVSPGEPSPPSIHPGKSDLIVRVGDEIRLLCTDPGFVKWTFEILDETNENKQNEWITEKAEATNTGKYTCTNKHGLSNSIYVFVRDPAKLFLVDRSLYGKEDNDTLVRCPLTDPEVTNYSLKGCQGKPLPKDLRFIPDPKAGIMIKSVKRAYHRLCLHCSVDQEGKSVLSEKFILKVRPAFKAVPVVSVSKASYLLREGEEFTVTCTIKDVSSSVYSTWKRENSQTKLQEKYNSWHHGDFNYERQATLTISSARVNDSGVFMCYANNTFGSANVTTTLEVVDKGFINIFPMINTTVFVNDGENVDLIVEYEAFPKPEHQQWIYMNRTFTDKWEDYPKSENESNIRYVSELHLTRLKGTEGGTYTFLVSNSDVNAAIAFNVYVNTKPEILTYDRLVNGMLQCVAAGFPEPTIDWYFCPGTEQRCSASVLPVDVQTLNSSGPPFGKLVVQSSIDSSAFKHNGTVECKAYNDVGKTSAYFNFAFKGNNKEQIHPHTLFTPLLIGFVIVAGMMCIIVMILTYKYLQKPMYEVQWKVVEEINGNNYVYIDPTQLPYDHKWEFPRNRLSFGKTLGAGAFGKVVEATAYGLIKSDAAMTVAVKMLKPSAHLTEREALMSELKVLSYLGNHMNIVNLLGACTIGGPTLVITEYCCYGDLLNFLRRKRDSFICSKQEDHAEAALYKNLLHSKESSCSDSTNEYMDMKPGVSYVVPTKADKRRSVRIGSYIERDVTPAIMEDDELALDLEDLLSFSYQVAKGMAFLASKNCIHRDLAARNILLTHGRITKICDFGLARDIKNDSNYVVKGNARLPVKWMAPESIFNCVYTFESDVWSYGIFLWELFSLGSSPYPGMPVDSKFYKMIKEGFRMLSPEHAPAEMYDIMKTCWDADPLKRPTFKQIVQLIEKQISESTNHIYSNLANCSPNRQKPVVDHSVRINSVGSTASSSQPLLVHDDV

Structure (SMILES) | IC50 [nM]
[2H]c1c([2H])c([2H])n2c(C(=O)Nc3cc(-c4noc(C5CN(C(=O)OC)C5)n4)ccc3C)cnc2c1[2H] [F76, methyl 3-(3-(4-methyl-3-(5,6,7,8-(D4)imidazo[1,2-a]pyridine-3-carboxamido)phenyl)-1,2,4-oxadiazol-5-yl)azetidine-1-carboxylate] | 51
COC(=O)N1CCCCC1c1nc(-c2ccc(C)c(NC(=O)c3cnc4ccccn34)c2)no1 (stereo not shown) [F9] | 35
Cc1ccc(-c2noc(CN3CCC(F)(F)C3)n2)cc1NC(=O)c1cnc2ccccn12 [F29] | 16
Cc1ccc(-c2noc(C3(C)CN(S(C)(=O)=O)C3)n2)cc1NC(=O)c1cnc2ccccn12 [F58] | 89
Cc1ccc(-c2noc(C3CCN(S(C)(=O)=O)CC3)n2)cc1NC(=O)c1cnc2ccccn12 [F34] | 95
COC(=O)N1CC(c2nc(-c3ccc(C)c(NC(=O)c4cnc5cc(-c6cc[nH]n6)ccn45)c3)no2)C1 [F68, methyl 3-(3-(3-(7-(1H-pyrazol-3-yl)imidazo[1,2-a]pyridine-3-carboxamido)-4-methylphenyl)-1,2,4-oxadiazol-5-yl)azetidine-1-carboxylate] | 13
COC(=O)N1CC(c2nc(-c3ccc(C)c(NC(=O)c4cnc5cc(CCC(C)(C)O)ccn45)c3)no2)C1 [F74, methyl 3-(3-(3-(7-(3-hydroxy-3-methylbutyl)imidazo[1,2-a]pyridine-3-carboxamido)-4-methylphenyl)-1,2,4-oxadiazol-5-yl)azetidine-1-carboxylate] | 51
COC(=O)N1CC(c2nc(-c3ccc(C)c(NC(=O)c4cnc5ccc(F)cn45)c3)no2)C1 [F55] | 54
Cc1ccc2ncc(C(=O)Nc3cc(-c4noc(NC5CCOCC5)n4)ccc3C)n2c1 [F82] | 55
Cc1ccc(Nc2noc(C3CCCCO3)n2)cc1NC(=O)c1cnc2ccccn12 (stereo not shown) [F70] | 6
Cc1ccn2c(C(=O)Nc3cc(-c4noc(N5CCC(F)CC5)n4)ccc3C)cnc2c1 [F90] | 33
Cc1ccc(-c2nc(N3CCOCC3)no2)cc1NC(=O)c1cnc2ccccn12 [F75, N-(2-methyl-5-(3-morpholino-1,2,4-oxadiazol-5-yl)phenyl)imidazo[1,2-a]pyridine-3-carboxamide] | 61
Cc1ccc(Nc2noc([C@@H]3CCCO3)n2)cc1NC(=O)c1cnc2ccccn12 [F72] | 6
COC(=O)N1CC(c2nc(-c3ccc(C)c(NC(=O)c4cnc5ccc(CCC(C)=O)cn45)c3)no2)C1 [F65, methyl 3-(3-(4-methyl-3-(6-(3-oxobutyl)imidazo[1,2-a]pyridine-3-carboxamido)phenyl)-1,2,4-oxadiazol-5-yl)azetidine-1-carboxylate] | 33
Cc1ccc(-c2noc([C@@H]3CCCN3S(C)(=O)=O)n2)cc1NC(=O)c1cnc2ccccn12 [F36] | 93
COC(=O)N1CC(c2nc(-c3ccc(C)c(NC(=O)c4cnc5ccc(COCCF)cn45)c3)no2)C1 [F96] | 26
Cc1ccc(-c2noc(C3CN(S(=O)(=O)C(F)F)C3)n2)cc1NC(=O)c1cnc2ccccn12 [F43] | 24
COC(=O)N1CC(c2nc(-c3ccc(C)c(NC(=O)c4cnc5cc(C)ccn45)c3)no2)C1 [F61, methyl 3-(3-(4-methyl-3-(7-methylimidazo[1,2-a]pyridine-3-carboxamido)phenyl)-1,2,4-oxadiazol-5-yl)azetidine-1-carboxylate] | 26
Cc1ccc(-c2noc(CC3CCOCC3)n2)cc1NC(=O)c1cnc2ccccn12 [F17] | 27
Cc1ccc(-c2noc([C@H](C)N3CC(F)(F)C3)n2)cc1NC(=O)c1cnc2ccccn12 [F50] | 77
COC(=O)N1CC(c2nc(-c3ccc(C)c(NC(=O)c4cnc5ccccn45)c3)no2)C1 [F15, methyl 3-(3-(3-(imidazo[1,2-a]pyridine-3-carboxamido)-4-methylphenyl)-1,2,4-oxadiazol-5-yl)azetidine-1-carboxylate] | 20
Cc1ccc(-c2noc(C3CN(C(=O)OC(C)(C)C)C3)n2)cc1NC(=O)c1cnc2ccccn12 [F13, tert-butyl 3-(3-(3-(imidazo[1,2-a]pyridine-3-carboxamido)-4-methylphenyl)-1,2,4-oxadiazol-5-yl)azetidine-1-carboxylate] | 623
Cc1ccc(-c2nc(N3C[C@@H]4C[C@@H](C3)O4)no2)cc1NC(=O)c1cnc2ccccn12 [F3] | 90
COC(=O)NC1(c2nc(-c3ccc(C)c(NC(=O)c4cnc5ccccn45)c3)no2)COC1 [F26, methyl (3-(3-(3-(imidazo[1,2-a]pyridine-3-carboxamido)-4-methylphenyl)-1,2,4-oxadiazol-5-yl)oxetan-3-yl)carbamate] | 103

Same assay, conditions: Table 2; human Mo7e cells stimulated with SCF, 48 hours, CellTiter Glo; 1% FBS; read-out: c-kit (Mo7e)

Structure (SMILES) | IC50 [nM]
Cc1cc(F)c(-c2noc(C3CN(S(C)(=O)=O)C3)n2)cc1NC(=O)c1cnc2ccccn12 [F232] | 489
Cc1ccc(-c2noc([C@@H]3CCC(=O)N3)n2)cc1NC(=O)c1cnc2ccccn12 [F191] | 465
Cc1ccc(-c2noc(C3CCN(S(C)(=O)=O)C3)n2)cc1NC(=O)c1cnc2ccccn12 (stereo not shown) [F170] | 137
Cc1ccc2ncc(C(=O)Nc3cc(-c4noc(COC5COC5)n4)ccc3C)n2c1 [F260] | 205
Cc1ccc(-c2noc(C3CN(S(=O)(=O)c4cccnc4)C3)n2)cc1NC(=O)c1cnc2ccccn12 [F157] | 153
Cc1ccc(-c2noc(C3C[C@H](O)CN3)n2)cc1NC(=O)c1cnc2ccc(F)cn12 (stereo partly shown) [F306] | 8370
Cc1ccc(-c2noc(C3CC[C@H](O)CO3)n2)cc1NC(=O)c1cnc2ccccn12 (stereo partly shown) [F114] | 183
Cc1ccc(-c2noc(C3CN(C(=O)OCC(F)F)C3)n2)cc1NC(=O)c1cnc2ccccn12 [F259] | 177
Cc1ccc(-c2noc(C3CCNCC3)n2)cc1NC(=O)c1cnc2ccccn12 [F290] | 1890
Cc1ccc(-c2noc([C@@H]3COCCN3C(=O)OC(C)(C)C)n2)cc1NC(=O)c1cnc2ccccn12 [F116] | 792
Cc1ccc(-c2noc(CNC(=O)[C@H]3CCCO3)n2)cc1NC(=O)c1cnc2ccccn12 [F146] | 187
CC(=O)N1CC(c2nc(-c3ccc(C)c(NC(=O)c4cnc5ccccn45)c3)no2)C1 [F115] | 464
Cc1ccc2ncc(C(=O)Nc3cc(-c4noc(COC5CN(C(=O)OC(C)(C)C)C5)n4)ccc3C)n2c1 [F267] | 650
Cc1ccc(-c2nc(C3CN(C(=O)OC(C)(C)C)C3)no2)cc1NC(=O)c1cnc2ccccn12 [F300] | 3560
O=C(Nc1cc(-c2noc(CN3CCOCC3)n2)ccc1F)c1cnc2ccccn12 [F229] | 245
O=C(Nc1cc(-c2noc(C3CN(S(=O)(=O)C(F)F)C3)n2)ccc1F)c1cnc2ccccn12 [F223] | 151
Cc1ccc(-c2noc([C@H]3COCCN3S(C)(=O)=O)n2)cc1NC(=O)c1cnc2ccccn12 [F167] | 102
Cc1ccc(-c2noc(CNC(=O)CC3CCCO3)n2)cc1NC(=O)c1cnc2ccccn12 (stereo not shown) [F145] | 447
Cc1ccc(-c2noc([C@@H]3CC(F)(F)CN3C(=O)OC(C)(C)C)n2)cc1NC(=O)c1cnc2ccccn12 [F120] | 311

Structure (SMILES) | IC50 [nM]
Cc1ccc(-c2noc(CN3CC(F)C3)n2)cc1NC(=O)c1cnc2ccccn12 [F130] | 127
Cc1ccc(-c2noc([C@H]3CCCN3)n2)cc1NC(=O)c1cnc2ccccn12 [F200] | 395
Cc1ccc(-c2noc([C@@H]3CC(F)(F)CN3)n2)cc1NC(=O)c1cnc2ccccn12 [F121] | 205
CC(=O)N1CCC[C@H]1c1nc(-c2ccc(C)c(NC(=O)c3cnc4ccccn34)c2)no1 [F197] | 460
COC(=O)N1CC(c2nc(-c3ccc(C)c(NC(=O)c4cnc5ccc(-n6ccnc6)cn45)c3)no2)C1 [F252] | 421
Cc1ccc(-c2noc(CNC(=O)CC3CCOCC3)n2)cc1NC(=O)c1cnc2ccccn12 [F270] | 1040
Cc1ccc(-c2noc([C@H]3CCCN(C(=O)OC(C)(C)C)C3)n2)cc1NC(=O)c1cnc2ccccn12 [F187] | 320
Cc1ccc(-c2noc(CC3CNC3)n2)cc1NC(=O)c1cnc2ccccn12 [F295] | 2200
Cc1ccc(-c2noc(C3(N)COC3)n2)cc1NC(=O)c1cnc2ccccn12 [F286] | 1680
Cc1ccc(-c2noc(C3CN(c4cnccn4)C3)n2)cc1NC(=O)c1cnc2ccccn12 [F243] | 310
COC(=O)N1CCC(Cc2nc(-c3ccc(C)c(NC(=O)c4cnc5ccccn45)c3)no2)CC1 [F214] | 142
Cc1ccc(-c2noc(N3CCC3)n2)cc1NC(=O)c1cnc2ccccn12 [F248] | 132
Cc1ccc(-c2noc(C3CN(S(=O)(=O)C4CCN(C(=O)OC(C)(C)C)C4)C3)n2)cc1NC(=O)c1cnc2ccccn12 (stereo not shown) [F162] | 249
CC(=O)N1CCO[C@@H](c2nc(-c3ccc(C)c(NC(=O)c4cnc5ccccn45)c3)no2)C1 [F199] | 509
Cc1ccc(-c2noc(CN3CC(CO)C3)n2)cc1NC(=O)c1cnc2ccccn12 [F181] | 337
Cc1ccc2ncc(C(=O)Nc3cc(-c4noc(C5CCN5C(=O)OC(C)(C)C)n4)ccc3C)n2c1 (stereo not shown) [F261] | 291
CC(=O)N1CCC[C@@H]1c1nc(-c2ccc(C)c(NC(=O)c3cnc4ccccn34)c2)no1 [F269] | 1010
COC(=O)N1CC(c2nc(-c3ccc(F)c(NC(=O)c4cnc5ccccn45)c3)no2)C1 [F201] | 443

Same assay, conditions: Table 2; values marked *: 20% FBS instead of 1% FBS; read-out: c-kit (Mo7e)

Structure (SMILES) | IC50 [nM]
Cc1ccc(-c2noc(C3CCCCN3C(=O)OC(C)(C)C)n2)cc1NC(=O)c1cnc2ccccn12 (stereo not shown) [F288] | 1780
Cc1ccc(-c2noc(C3CCCN(C(=O)OC(C)(C)C)C3)n2)cc1NC(=O)c1cnc2ccccn12 (stereo not shown) [F282] | 1600
Cc1ccc(-c2noc([C@@H]3CCCO3)n2)cc1NC(=O)c1cnc2ccccn12 [F104] | 224
